The source of these data is patent US9012365B2, “Compatibility agents for herbicidal formulations comprising 2,4-(Dichlorophenoxy) acetic acid salts” (priority 2006, dated 2015).

A short description of this data set: Appearance of 10 g solution of (2.5 wt % ai 2,4-D DMA + tested chemical) after adding 40% AMS. The data set is classed as physicochemical. The following applies: 2.5 wt % ai 2,4-D DMA; for Addition Weight of 40% AMS: System was cloud after adding / Addition Weight of 40% AMS: System was clear after adding: 10 g solution. On the procedure: In this example, the appearance of a 10 g solution of (2.5 wt % ai 2,4-D DMA+tested chemical) was evaluated after adding 40% AMS

[1] abbreviates: 0.13 wt % a.i. of tested chemical, 0 gram 40% AMS.
Where [2] appears, read: 0.13 wt % a.i. of tested chemical.
The mark [3] stands for this setting: 1.25 wt % a.i. of tested chemical.
The mark [4] stands for this setting: 0.04 wt % a.i. of tested chemical.
Setting [5] is: 0.05 wt % a.i. of tested chemical.

Where “and” joins values, the source holds several entries; their conditions need not be identical. Equal values may be shown once.

As for 2-ethylhexyl glycoside, the “0 gram Appearance” value under setting [1] is reported as “Clear”. Further, the “Addition Weight of 40% AMS: System was cloud after adding” value under setting [2] was 0.226 grams.
In the same order, the values of 2-propylheptanol-5 EO are “Clear” and 0.633 grams.
Consider 2-propylheptanol-8EO, for which the “0 gram Appearance” value under setting [1] is on record as “Clear”. Further, under setting [2], the “Addition Weight of 40% AMS: System was clear after adding” value is 0.43 grams and the “Addition Weight of 40% AMS: System was cloud after adding” value is given as 0.526 grams.
In the same order, the values of `CCCCOCCOC(C)=O` [Butyl cellosolve Acetate (C4—O—C—C—OOCC), Butyl cellosolve Acetate] are “Clear”, 0.162 grams and 0.324 grams.
Regarding `CCCCCCCCCCCC[N+](C)(C)CC(=O)[O-]` [Lauryldimethyl betaine], under setting [3], the “0 gram Appearance” value is “Clear”, the “Addition Weight of 40% AMS: System was clear after adding” value was determined as 0.693 grams and the “Addition Weight of 40% AMS: System was cloud after adding” value is 0.913 grams.
Consider `CCCCCCCCCCCCOS(=O)(=O)[O-].[Na+]` [Sodium lauryl sulfate], for which, under setting [4], the “0 gram Appearance” value is reported as “Clear” and the “Addition Weight of 40% AMS: System was cloud after adding” value is recorded as 0.101 grams.
For the compound Alkyl ether citrate, the “0 gram Appearance” value under setting [1] is given as “Clear”. The “Addition Weight of 40% AMS: System was cloud after adding” value under setting [2] came out at 0.509 grams.
As for “C6-10 isopropylamine alcohol ether sulfate”, under setting [1], the “0 gram Appearance” value was “Clear”. Besides, under setting [2], the “Addition Weight of 40% AMS: System was clear after adding” value is given as 0.528 grams and the “Addition Weight of 40% AMS: System was cloud after adding” value came to 0.712 grams.
As to C8-10 + 4 EO phosphate ester (acid), the “0 gram Appearance” value under setting [1] is on record as “Clear”. In addition, the “Addition Weight of 40% AMS: System was cloud after adding” value under setting [2] was found to be 0.488 grams.
As for C8-10 glycosides [AG 6210], the “0 gram Appearance” value under setting [1] is “Clear”. Under setting [2], the “Addition Weight of 40% AMS: System was clear after adding” value is listed as 1 grams and the “Addition Weight of 40% AMS: System was cloud after adding” value is reported as 1.212 grams.
Take C8-10 glycosides [Agnique PG 8166]: under setting [1], the “0 gram Appearance” value is “Clear”. The “Addition Weight of 40% AMS: System was cloud after adding” value under setting [2] is 0.217 grams.
The matching figures for C9-C11 glycoside: “Clear” and 0.272 grams.
As for C10-12 alcohol ethoxylate (5EO), under setting [1], the “0 gram Appearance” value is “Clear”. Also, under setting [2], the “Addition Weight of 40% AMS: System was clear after adding” value is on record as 1.035 grams and the “Addition Weight of 40% AMS: System was cloud after adding” value came out at 1.226 grams.
As for C10-12 alcohol ethoxylate (7EO), the “0 gram Appearance” value under setting [1] is given as “Clear”. In addition, under setting [2], the “Addition Weight of 40% AMS: System was clear after adding” value is 0.829 grams and 0.903 grams; the “Addition Weight of 40% AMS: System was cloud after adding” value is 1.033 grams and 1.026 grams.
As to C10-12 alcohol ethoxylate (9EO), the “0 gram Appearance” value under setting [1] is “Clear”. Moreover, under setting [2], the “Addition Weight of 40% AMS: System was clear after adding” value was 0.519 grams and the “Addition Weight of 40% AMS: System was cloud after adding” value was 0.72 grams.
Take C10-12 alcohol ethoxylate (12EO): the “0 gram Appearance” value under setting [1] was “Clear”. Besides, under setting [2], the “Addition Weight of 40% AMS: System was clear after adding” value amounted to 0.619 grams and the “Addition Weight of 40% AMS: System was cloud after adding” value is 0.669 grams.
Take C11 alcohol ethoxylate (5EO): the “0 gram Appearance” value under setting [1] is listed as “Clear”. In addition, under setting [2], the “Addition Weight of 40% AMS: System was clear after adding” value is 0.819 grams and the “Addition Weight of 40% AMS: System was cloud after adding” value is reported as 0.918 grams.
As to Castor oil ethoxylate, under setting [1], the “0 gram Appearance” value is “very cloudy”. Further, under setting [2], the “Addition Weight of 40% AMS: System was clear after adding” value is listed as “very cloudy” and the “Addition Weight of 40% AMS: System was cloud after adding” value amounted to 0 grams.
For the compound Castor oil ethoxylate-20EO, the “0 gram Appearance” value under setting [1] is “Clear”. Further, under setting [2], the “Addition Weight of 40% AMS: System was clear after adding” value is 0.279 grams and the “Addition Weight of 40% AMS: System was cloud after adding” value was 0.521 grams.
With Cocamide DEA, the “0 gram Appearance” value under setting [1] is “Clear”. Under setting [2], the “Addition Weight of 40% AMS: System was clear after adding” value is 0.701 grams and the “Addition Weight of 40% AMS: System was cloud after adding” value is 0.987 grams.
In the same order, the values of Coco duoamine-3EO are “Clear”, 3.521 grams and 4.058 grams.
In the case of Cocoamine-2EO oxide, the “0 gram Appearance” value under setting [1] is recorded as “Clear”. Also, the “Addition Weight of 40% AMS: System was cloud after adding” value under setting [2] was 0.096 grams.
On to Cocoamine-5EO, for which the “0 gram Appearance” value under setting [1] is “Clear”. Under setting [2], the “Addition Weight of 40% AMS: System was clear after adding” value is 1.478 grams and the “Addition Weight of 40% AMS: System was cloud after adding” value is 1.633 grams.
Turning to Cocoamine-10EO, the “0 gram Appearance” value under setting [1] is recorded as “Clear”. Under setting [2], the “Addition Weight of 40% AMS: System was clear after adding” value amounted to 1.454 grams and the “Addition Weight of 40% AMS: System was cloud after adding” value is 1.541 grams.
The matching figures for Cocodimethylamidopropylamine: “Clear”, 1.488 grams and 1.731 grams.
The matching figures for Cocotrimethyl Chloride: “Clear”, 2.038 grams and 2.123 grams.
In the same order, the values of Di (propylene glycol) methyl ether are “Clear”, 0.665 grams and 0.829 grams.
Regarding “Ethoxylated (6EO) caprylic & capric glycerol ester”, under setting [1], the “0 gram Appearance” value is “Clear”. For the same compound, the “Addition Weight of 40% AMS: System was cloud after adding” value under setting [2] came out at 0.163 grams.
As for Ethoxylated (20EO) sorbitol ester, under setting [1], the “0 gram Appearance” value is given as “Clear”. Further, under setting [2], the “Addition Weight of 40% AMS: System was clear after adding” value was 1.037 grams and the “Addition Weight of 40% AMS: System was cloud after adding” value is recorded as 1.25 grams.
Turning to Iso C13 + 4EO phosphate ester (acid), under setting [1], the “0 gram Appearance” value is “Clear”. Besides, under setting [2], the “Addition Weight of 40% AMS: System was cloud after adding” value was determined as 0.324 grams.
As for Iso C13 etheramine-5EO, the “0 gram Appearance” value under setting [1] is “Clear”. Besides, under setting [2], the “Addition Weight of 40% AMS: System was clear after adding” value amounted to 1.732 grams and the “Addition Weight of 40% AMS: System was cloud after adding” value is 2.045 grams.
For the compound Na Cocoamphocarboxyglycinate, under setting [3], the “0 gram Appearance” value is “Clear”, the “Addition Weight of 40% AMS: System was clear after adding” value was found to be 0.25 grams and the “Addition Weight of 40% AMS: System was cloud after adding” value amounted to 0.508 grams.
For Nonylphenol-4EO, under setting [1], the “0 gram Appearance” value is “cloudy”. Under setting [2], the “Addition Weight of 40% AMS: System was clear after adding” value is reported as “cloudy” and the “Addition Weight of 40% AMS: System was cloud after adding” value came out at 0 grams.
Consider Nonylphenol-6EO (5EO), for which, under setting [1], the “0 gram Appearance” value was “Hazy”. Moreover, under setting [2], the “Addition Weight of 40% AMS: System was clear after adding” value is “Hazy” and the “Addition Weight of 40% AMS: System was cloud after adding” value was 0 grams.
Take Nonylphenol-9EO: the “0 gram Appearance” value under setting [1] is recorded as “Clear”. Under setting [2], the “Addition Weight of 40% AMS: System was clear after adding” value was 0.473 grams and the “Addition Weight of 40% AMS: System was cloud after adding” value is reported as 0.601 grams.
In the case of Nonylphenol-9EO carboxylate, the “0 gram Appearance” value under setting [1] is “Clear”. For the same compound, under setting [2], the “Addition Weight of 40% AMS: System was clear after adding” value is reported as 1.312 grams and the “Addition Weight of 40% AMS: System was cloud after adding” value was 1.692 grams.
Turning to Nonylphenol-12EO, the “0 gram Appearance” value under setting [1] is listed as “Clear”. Besides, under setting [2], the “Addition Weight of 40% AMS: System was clear after adding” value was determined as 0.415 grams and the “Addition Weight of 40% AMS: System was cloud after adding” value is listed as 0.502 grams.
In the same order, the values of Nonylphenol-30EO are “Clear”, 0.487 grams and 0.584 grams.
For the compound Octyliminodipropionate, under setting [3], the “0 gram Appearance” value was “Clear”, the “Addition Weight of 40% AMS: System was clear after adding” value is reported as 0.283 grams and the “Addition Weight of 40% AMS: System was cloud after adding” value is 0.602 grams.
On to Oleylamphopolycarboxyglycinate, for which the “0 gram Appearance” value under setting [1] is “Clear”. Moreover, under setting [2], the “Addition Weight of 40% AMS: System was clear after adding” value turned out to be 0.261 grams and the “Addition Weight of 40% AMS: System was cloud after adding” value amounted to 0.459 grams.
As for Phenol ethoxylate, under setting [1], the “0 gram Appearance” value was “Clear”. Also, the “Addition Weight of 40% AMS: System was cloud after adding” value under setting [2] is given as 0.577 grams.
Polyoxyethylene Sorbitol Tallate: under setting [1], the “0 gram Appearance” value is given as “Clear”. Under setting [2], the “Addition Weight of 40% AMS: System was clear after adding” value came to 0.661 grams and the “Addition Weight of 40% AMS: System was cloud after adding” value is on record as 0.71 grams.
Take Propyl glycosides: under setting [1], the “0 gram Appearance” value is given as “Clear”. Moreover, under setting [2], the “Addition Weight of 40% AMS: System was cloud after adding” value was found to be 0.329 grams.
Sodium lauryl olefin sulfonate: the “0 gram Appearance” value is, setting by setting: under setting [5], “Clear”; under setting [1], “Clear”. Moreover, the “Addition Weight of 40% AMS: System was clear after adding” value is 1.526 grams under setting [5] and 1.896 grams under setting [2]. For the same compound, the “Addition Weight of 40% AMS: System was cloud after adding” value is 2.121 grams under setting [5] and 2.546 grams under setting [2].
Take Sodium xylene sulfonate: under setting [1], the “0 gram Appearance” value is reported as “Clear”. For the same compound, the “Addition Weight of 40% AMS: System was cloud after adding” value under setting [2] is reported as 0.524 grams.
